Data published in patent US20250295763A1 (priority 2024, published 2025).
Where two headings read alike, the source gives them in different places. Peptide text beside a SMILES is read from it. * marks the point of attachment. X1 = CCCCCCCCCCCCCCCC(=O)OCC(C*)OC(=O)CCCCCCCCCCCCCCC

How the values were obtained:
[1] = background statement; cited from earlier work
[2] = for Body weight change (%) Post-dose 1 D 1 / Average body weight change (%) Post-dose 1 D 1: i.m. Days 0 and 14, 0.3 mcg H3N2; for Body weight change (%) Post-dose 1 D 2 / Body weight change (%) Post-dose 1 D 14 / Body weight change (%) Post-dose 2 D 15 / Body weight change (%) Post-dose 2 D 16 / Body weight change (%) Post-dose 2 D 21 / Average body weight change (%) Post-dose 1 D 2 / Average body weight change (%) Post-dose 1 D 14 / Average body weight change (%) Post-dose 2 D 15 / Average body weight change (%) Post-dose 2 D 16 / Average body weight change (%) Post-dose 2 D 21: same groups
H3N2 = format: in vivo, C57BL/6 mice
[3] = Table 5, 100 mcg Synsap 5, 10 mcg Pam3CSK4
[4] = Table 6, after the boost (day 28), 100 mcg Synsap 5, 10 mcg Pam3CSK4, 0.3 mcg H3N2
[5] = Table 7, 10 mcg R848 with 2, 10, 50 or 100 mcg Synsap 14
[6] = Table 8, after the boost (day 28), 10 mcg R848 with 2, 10, 50 or 100 mcg Synsap 14, 0.3 mcg H3N2
[7] = Table 3, 5/50 mcg TLR4 agonist/Synsap, alone: 5 mcg 3D-6A-PHAD, 5 mcg EcML, 10 mcg TLR4-1, 50 mcg Synsap, 5/5 mcg AS01B
[8] = Table 4, after the boost (day 28), 5 mcg TLR4 agonist / 50 mcg Synsap, 0.3 mcg H3N2

## CCC(C)C(CC(O)CC(=O)OC1C(C)OC(OC(=O)C23CCC(C)(C)CC2C2=CCC4C5(C)CCC(OC6OC(C(=O)O)C(O)C(OC7OCC(O)C(O)C7O)C6OC6OC(CO)C(O)C(O)C6O)C(C)(C=O)C5CCC4(C)C2(C)CC3O)C(OC2OC(C)C(OC3OCC(O)C(OC4OCC(O)(CO)C4O)C3O)C(OC3OC(CO)C(O)C(O)C3O)C2O)C1O)OC(=O)CC(O)CC(OC1OC(CO)C(O)C1O)C(C)CC (centres unmarked) [QS-18]
[1]
  solubility in water: water-soluble

## CCCCCCCCCCCCCCCC(=O)OCC(CSC[C@H](N)C(=O)N[C@@H](CO)C(=O)N[C@@H](CCCCN)C(=O)N[C@@H](CCCCN)C(=O)N[C@@H](CCCCN)C(=O)N[C@@H](CCCCN)C(=O)O)OC(=O)CCCCCCCCCCCCCCC (some centres unmarked) [Pam3CSK4, reference compound] (H-C(X1)SKKKK-OH)
[2]; [3]
  Body weight change (%) Post-dose 1 D 1: −0.996%
[2]; Table 5
  Body weight change (%) Post-dose 1 D 2: 2.635%
  Body weight change (%) Post-dose 1 D 14: 6.308%
  Body weight change (%) Post-dose 2 D 15: −0.998%
  Body weight change (%) Post-dose 2 D 16: 0.169%
  Body weight change (%) Post-dose 2 D 21: 4.551%
H3N2; [4]
  HI titers GMT mean: 2176
H3N2; Table 6, day 28
  HI Titers Fold (compare to CpG1018): 1.0
  HI Titers Fold (compare to SynSap 17): 1.1
  HI titers Fold (compare to H3N2): 14

## CCOCc1nc2c(N)nc3ccccc3c2n1CC(C)(C)O [Synsap R848, Resiquimod, reference compound]
[2]; [5]
  Body weight change (%) Post-dose 1 D 1: −3.012%
[2]; Table 7
  Body weight change (%) Post-dose 1 D 2: −0.416%
  Body weight change (%) Post-dose 1 D 14: 5.224%
  Body weight change (%) Post-dose 2 D 15: −4.078%
  Body weight change (%) Post-dose 2 D 16: −0.804%
  Body weight change (%) Post-dose 2 D 21: 1.856%
H3N2; [6]
  HI titer GMT mean: 183.8
H3N2; Table 8, day 28
  HI titer Fold (compare to H3N2 alone): 1.1
  HI titer Fold (compare to R848 treated group): 1.0
  HI titer Fold (compare to SynSap 14 treated group): 1.0

## Poly(I:C) [reference compound]
H3N2; mouse, in vivo
  HI titer Fold (compare to H3N2): 1
  HI titer Fold (compare to SynSap 21): 0.5
  HI titer Fold (compare to TLR3): 0.3299
  HI titer GMT mean: 640

## CC1O[C@@H](OC(=O)[C@]23CCC(C)(C)CC2C2=CCC4C5(C)CC[C@H](O[C@@H]6O[C@H](C(=O)NCCCCCCCCc7ccc(N8CCOCC8)cc7)[C@@H](O)[C@H](O)[C@H]6O)[C@](C)(C=O)[C@@H]5CC[C@]4(C)C2(C)CC3O)C(O[C@@H]2OC(C)[C@H](O[C@@H]3OC[C@@H](O)[C@H](O)C3O)[C@H](O)C2O)[C@@H](O)[C@H]1O (some centres unmarked) [Synsap 5]
[2]; [3]
  Body weight change (%) Post-dose 1 D 1: −3.166%
[2]; Table 5
  Body weight change (%) Post-dose 1 D 2: 1.523%
  Body weight change (%) Post-dose 1 D 14: 4.909%
  Body weight change (%) Post-dose 2 D 15: −0.174%
  Body weight change (%) Post-dose 2 D 16: 3.144%
  Body weight change (%) Post-dose 2 D 21: 7.000%
H3N2; [4]
  HI titers GMT mean: 2048
H3N2; Table 6, day 28
  HI Titers Fold (compare to CpG1018): 0.9
  HI Titers Fold (compare to SynSap 17): 1.0
  HI titers Fold (compare to H3N2): 13

## CC1O[C@@H](OC2[C@H](OC(=O)[C@]34CCC(C)(C)CC3C3=CCC5C6(C)CC[C@H](O[C@@H]7O[C@H](C(=O)NCCCCCCCCc8ccc(Oc9ccc(F)cc9)cc8)[C@@H](O)[C@H](O)[C@H]7O)[C@](C)(C=O)[C@@H]6CC[C@]5(C)C3(C)CC4O)OC[C@H](O)[C@H]2O)C(O)[C@@H](O)[C@H]1O[C@@H]1OC[C@@H](O)[C@H](O)C1O (some centres unmarked) [Synsap 14]
[2]; [5]
  Body weight change (%) Post-dose 1 D 1: −1.769%
[2]; Table 7
  Body weight change (%) Post-dose 1 D 2: −0.704%
  Body weight change (%) Post-dose 1 D 14: 3.586%
  Body weight change (%) Post-dose 2 D 15: −0.277%
  Body weight change (%) Post-dose 2 D 16: −0.654%
  Body weight change (%) Post-dose 2 D 21: 3.064%
H3N2; [6]
  HI titer GMT mean: 192
H3N2; Table 8, day 28
  HI titer Fold (compare to H3N2 alone): 1.2
  HI titer Fold (compare to R848 treated group): 1.0
  HI titer Fold (compare to SynSap 14 treated group): 1.0

## CC1O[C@@H](OC(=O)[C@]23CCC(C)(C)CC2C2=CCC4C5(C)CC[C@H](O[C@@H]6O[C@H](C(=O)NCCCCCCCCc7ccc(Oc8ccccc8)cc7)[C@@H](O)[C@H](O)[C@H]6O)[C@](C)(C=O)[C@@H]5CC[C@]4(C)C2(C)CC3O)C(O[C@@H]2OC(C)[C@H](O[C@@H]3OC[C@@H](O)[C@H](O)C3O)[C@H](O[C@@H]3OC(CO)[C@@H](O)[C@H](O)C3O)C2O)[C@@H](O)[C@H]1O (some centres unmarked) [Synsap 17]
[2]; Table 9, 10 mcg CpG 1018 with 10, 50, 75 or 100 mcg Synsap 17, or 50 mcg CpG 1018 with 10 mcg Synsap 17
  Body weight change (%) Post-dose 1 D 1: −1.769%
[2]; Table 9
  Body weight change (%) Post-dose 1 D 2: −0.704%
  Body weight change (%) Post-dose 1 D 14: 3.586%
  Body weight change (%) Post-dose 2 D 15: −0.277%
  Body weight change (%) Post-dose 2 D 16: −0.654%
  Body weight change (%) Post-dose 2 D 21: 2.921%
H3N2; Table 10, after the boost (day 28), CpG 1018 / Synsap 17 ratios, 0.3 mcg H3N2
  HI titer GMT mean: 183.8
H3N2; Table 10, day 28
  HI titer Fold (compare to CpG1018): 0.6
  HI titer Fold (compare to H3N2): 1.1
  HI titer Fold (compare to Synsap 17): 1.0

## CCCCCCCCCCCCCC(=O)O[C@H](CCCCCCCCCCC)CC(=O)NC1C(OC(=O)C[C@@H](CCCCCCCCCCC)OC(=O)CCCCCCCCCCCCC)[C@H](OP(=O)(O)O)C(CO)O[C@H]1OCC1O[C@H](O)C(NC(=O)C[C@@H](CCCCCCCCCCC)OC(=O)CCCCCCCCCCCCC)C(O)[C@@H]1O.N (some centres unmarked) [Synsap 3D-6A-PHAD, reference compound]
[2]; [7]
  Average body weight change (%) Post-dose 1 D 1: −5.362%
[2]; Table 3
  Average body weight change (%) Post-dose 1 D 2: −2.900%
  Average body weight change (%) Post-dose 1 D 14: 6.215%
  Average body weight change (%) Post-dose 2 D 15: −1.147%
  Average body weight change (%) Post-dose 2 D 16: 0.463%
  Average body weight change (%) Post-dose 2 D 21: 2.331%
H3N2; [8]
  HI titers GMT mean: 806.3
H3N2; Table 4, day 28
  HI titers Fold (compare to AS01B): 0.6
  HI titers Fold (compare to H3N2): 5.0

## CCC(C)C(CC(O)CC(=O)OC1C(C)OC(OC(=O)C23CCC(C)(C)CC2C2=CCC4C5(C)CCC(OC6OC(C(=O)O)C(O)C(OC7OCC(O)C(O)C7O)C6OC6OC(CO)C(O)C(O)C6O)C(C)(C=O)C5CCC4(C)C2(C)CC3O)C(OC2OC(C)C(OC3OCC(O)C(OC4OCC(O)(CO)C4O)C3O)C(OC3OC(CO)C(O)C(O)C3O)C2O)C1O)OC(=O)CC(O)CC(OC1OC(COC2OC(C)C(O)C(O)C2O)C(O)C1O)C(C)CC (centres unmarked) [QS-17]
[1]
  solubility in water: water-soluble

## COc1ccc(CCCCCCCCNC(=O)[C@H]2O[C@@H](O[C@H]3CCC4(C)C5CC=C6C7CC(C)(C)CC[C@]7(C(=O)O[C@@H]7OC(C)[C@H](O)[C@H](O)C7O[C@@H]7OC(C)[C@H](O[C@@H]8OC[C@@H](O)[C@H](O)C8O)[C@H](O)C7O)C(O)CC6(C)[C@@]5(C)CC[C@H]4[C@@]3(C)C=O)[C@H](O)[C@@H](O)[C@@H]2O)cc1 (some centres unmarked) [Synsap 1]
[2]; [7]
  Average body weight change (%) Post-dose 1 D 1: −1.096%
[2]; Table 3
  Average body weight change (%) Post-dose 1 D 2: −1.736%
  Average body weight change (%) Post-dose 1 D 14: 3.753%
  Average body weight change (%) Post-dose 2 D 15: 2.417%
  Average body weight change (%) Post-dose 2 D 16: −1.393%
  Average body weight change (%) Post-dose 2 D 21: 6.148%
H3N2; [8]
  HI titers GMT mean: 320
H3N2; Table 4, day 28
  HI titers Fold (compare to AS01B): 0.25
  HI titers Fold (compare to H3N2): 2

## CC1O[C@@H](OC(=O)[C@]23CCC(C)(C)CC2C2=CCC4C5(C)CC[C@H](O[C@@H]6O[C@H](C(=O)NCCCCCCCCc7ccc(Oc8ccccc8)cc7)[C@@H](O)[C@H](O)[C@H]6O)[C@](C)(C=O)[C@@H]5CC[C@]4(C)C2(C)CC3O)C(O[C@@H]2OC(C)[C@H](O[C@@H]3OC[C@@H](O)[C@H](O)C3O)[C@H](O)C2O)[C@@H](O)[C@H]1O (some centres unmarked) [Synsap 3]
[2]; Table 1, 5 mcg 3D-PHAD with 5, 50, 75 or 100 mcg Synsap 3, Synsap 3 alone 50 mcg
  Average body weight change (%) Post-dose 1 D 1: 2.176%
[2]; Table 1
  Average body weight change (%) Post-dose 1 D 2: 2.174%
  Average body weight change (%) Post-dose 1 D 14: 6.946%
  Average body weight change (%) Post-dose 2 D 15: −0.739%
  Average body weight change (%) Post-dose 2 D 16: 1.208%
  Average body weight change (%) Post-dose 2 D 21: 2.329%
[2]; [7]
  Average body weight change (%) Post-dose 1 D 1: 2.176%
[2]; Table 3
  Average body weight change (%) Post-dose 1 D 2: 2.174%
  Average body weight change (%) Post-dose 1 D 14: 6.946%
  Average body weight change (%) Post-dose 2 D 15: −0.739%
  Average body weight change (%) Post-dose 2 D 16: 1.208%
  Average body weight change (%) Post-dose 2 D 21: 2.329%
H3N2; [8]
  HI titers GMT mean: 192
H3N2; Table 4, day 28
  HI titers Fold (compare to AS01B): 0.15
  HI titers Fold (compare to H3N2): 1.2

## CCCCCCCCCCCCCC(=O)O[C@H](CCCCCCCCCCC)CC(=O)OC1C(NC(=O)C[C@@H](CCCCCCCCCCC)OC(=O)CCCCCCCCCCC)[C@H](OCC2O[C@H](O)C(NC(=O)C[C@H](O)CCCCCCCCCCC)C(OC(=O)C[C@H](O)CCCCCCCCCCC)[C@@H]2O)OC(CO)[C@H]1OP(=O)(O)O (some centres unmarked) [EcML, reference compound]
[2]; [7]
  Average body weight change (%) Post-dose 1 D 1: −3.607%
[2]; Table 3
  Average body weight change (%) Post-dose 1 D 2: −1.832%
  Average body weight change (%) Post-dose 1 D 14: 7.914%
  Average body weight change (%) Post-dose 2 D 15: −3.002%
  Average body weight change (%) Post-dose 2 D 16: −0.735%
  Average body weight change (%) Post-dose 2 D 21: 1.468%
H3N2; [8]
  HI titers GMT mean: 403.2
H3N2; Table 4, day 28
  HI titers Fold (compare to AS01B): 0.3
  HI titers Fold (compare to H3N2): 2.5
